According to PMC10299909, “Structural basis of efficacy-driven ligand selectivity at GPCRs” (Nature Chemical Biology, 2023):
Positions count from the first letter of the chain named. “And” between values parts separate entries of the source, which are not always exact repeats. Equal values may be shown once. Read-outs that look alike come from different tables or passages of the source.

Tests used:
[1] = molecular target: T1, M2 mAChR (Homo sapiens, UniProt P08172); assay: pERK1/pERK2 signaling assay (AlphaScreen SureFire), CHO FlpIn cells; type: cell-based; conditions: for Fit parameter: Figure 5c, by tail length, best fit value from nonlinear regression on grouped data
T1 sequence (P08172 1-466): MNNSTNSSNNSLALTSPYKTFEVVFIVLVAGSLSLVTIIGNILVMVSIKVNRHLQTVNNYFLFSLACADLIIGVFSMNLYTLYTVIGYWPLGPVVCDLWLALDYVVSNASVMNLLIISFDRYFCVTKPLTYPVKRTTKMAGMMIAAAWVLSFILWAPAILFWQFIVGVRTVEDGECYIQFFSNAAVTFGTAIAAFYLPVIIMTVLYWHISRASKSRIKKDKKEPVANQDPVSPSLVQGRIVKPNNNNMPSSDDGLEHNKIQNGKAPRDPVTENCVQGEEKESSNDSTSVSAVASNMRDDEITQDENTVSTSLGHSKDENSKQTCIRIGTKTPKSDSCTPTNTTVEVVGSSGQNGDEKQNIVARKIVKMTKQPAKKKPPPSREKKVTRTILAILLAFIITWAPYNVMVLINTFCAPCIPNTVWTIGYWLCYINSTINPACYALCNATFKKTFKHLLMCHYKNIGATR

[2] = molecular target: T2, M4 mAChR (Homo sapiens, UniProt P08173); assay: as above; type: cell-based; conditions: for Fit parameter: Figure 5c, by tail length, best fit value from nonlinear regression on grouped data
T2 construct: expressed in transfected cells; host or cells: CHO FlpIn
T2 sequence (P08173 1-479): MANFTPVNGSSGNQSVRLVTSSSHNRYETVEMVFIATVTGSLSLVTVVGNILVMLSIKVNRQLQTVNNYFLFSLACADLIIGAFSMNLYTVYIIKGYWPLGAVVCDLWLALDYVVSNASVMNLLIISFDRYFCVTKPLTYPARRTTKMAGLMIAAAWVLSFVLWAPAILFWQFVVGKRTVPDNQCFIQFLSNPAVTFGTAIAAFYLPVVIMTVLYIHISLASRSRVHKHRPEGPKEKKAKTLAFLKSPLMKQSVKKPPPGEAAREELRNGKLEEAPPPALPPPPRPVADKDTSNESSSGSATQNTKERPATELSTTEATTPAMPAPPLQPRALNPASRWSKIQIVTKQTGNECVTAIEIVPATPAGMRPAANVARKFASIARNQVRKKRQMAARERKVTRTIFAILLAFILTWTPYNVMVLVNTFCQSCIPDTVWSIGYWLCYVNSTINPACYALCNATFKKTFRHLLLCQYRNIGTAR

[3] = molecular target: T2, M4 mAChR; assay: whole-cell [3H]NMS radioligand competition binding, CHO FlpIn cells; conditions: M4; first set of experiments (top 5 rows); read-out: pKI (radioligand binding competition with [3H]NMS) (converted)
[4] = molecular target: T3, M5 mAChR (Homo sapiens, UniProt P08912); assay: as above; conditions: first set of experiments, read-out: pKI (radioligand binding competition with [3H]NMS) (converted)
T3 construct: expressed in transfected cells; host or cells: CHO FlpIn
T3 sequence (P08912 1-532): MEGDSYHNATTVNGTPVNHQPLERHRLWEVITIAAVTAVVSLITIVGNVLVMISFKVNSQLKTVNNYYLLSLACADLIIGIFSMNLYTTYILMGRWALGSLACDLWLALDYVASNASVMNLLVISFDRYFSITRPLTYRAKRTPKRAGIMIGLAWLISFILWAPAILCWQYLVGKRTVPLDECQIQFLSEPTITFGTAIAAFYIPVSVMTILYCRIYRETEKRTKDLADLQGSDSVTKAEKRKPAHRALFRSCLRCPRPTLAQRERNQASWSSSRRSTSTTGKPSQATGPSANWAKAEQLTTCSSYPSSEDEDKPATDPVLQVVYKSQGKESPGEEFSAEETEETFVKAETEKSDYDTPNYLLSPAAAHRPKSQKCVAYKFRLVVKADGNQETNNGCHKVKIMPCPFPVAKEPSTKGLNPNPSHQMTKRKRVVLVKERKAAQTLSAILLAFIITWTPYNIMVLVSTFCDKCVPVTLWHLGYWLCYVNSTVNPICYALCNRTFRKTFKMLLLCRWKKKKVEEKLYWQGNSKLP

[5] = molecular target: T1, M2 mAChR; assay: cell-based
[6] = molecular target: M1 mAChR (Homo sapiens, UniProt P11229); assay: cell-based
[7] = molecular target: T4, M3 mAChR (Homo sapiens, UniProt P20309); assay: whole-cell [3H]NMS radioligand competition binding, CHO FlpIn cells; conditions: first set of experiments, read-out: pKI (radioligand binding competition with [3H]NMS) (converted)
T4 construct: expressed in transfected cells; host or cells: CHO FlpIn

[8] = molecular target: T4, M3 mAChR; assay: pERK1/pERK2 signaling assay (AlphaScreen SureFire), CHO FlpIn cells; type: cell-based; conditions: M3; first set of experiments
[9] = molecular target: T3, M5 mAChR; assay: as above; type: cell-based; conditions: first set of experiments
[10] = molecular target: M2 mAChR (Homo sapiens, UniProt P08172)
[11] = molecular target: T5, M4 L190F mAChR (Homo sapiens, UniProt P08173, L190F); assay: pERK1/pERK2 signaling assay (AlphaScreen SureFire), CHO FlpIn cells; type: cell-based
T5 construct: expressed in transfected cells; host or cells: CHO FlpIn
T5 sequence (P08173 1-479 L190F): T2 sequence (P08173 1-479) with L190F

[12] = molecular target: M4 mAChR (Homo sapiens, UniProt P08173); assay: [3H]NMS competition binding, purified receptor in lipid nanodiscs with Gi1 heterotrimer
[13] = molecular target: T6, M4 WT mAChR (Homo sapiens, UniProt P08173); assay: BRET TRUPATH GoA activation (G-protein dissociation) assay; type: cell-based; conditions: T=6min, listed as Ach
T6 construct: expressed in transfected cells; host or cells: CHO FlpIn
T6 sequence (P08173 1-479): T2 sequence (P08173 1-479)
Protocol: (§1) Cells were seeded at 20,000 cells per well into 96-well flat-bottom white culture plates and grown for 4 h. Plasmid DNA (20 ng per well of Gα, Gβ and Gγ at a 1:1:1 ratio) and linear polyethylenimine were added to the cells in a 1:6 ratio. To allow for protein expression, cells were then incubated (37 °C, 5% CO2) for 48 h before the measurement of agonist activity. […] The initial 4 min of measurement was considered baseline counts before ligand or vehicle addition, with BRET readings every 2 min for a further 8 min following drug or vehicle addition.
(§2) Concentration–response curves were fitted to a three-parameter logistic equation to derive ligand potency (pEC50) estimates.
(§3) Data was analyzed using the operational model of agonism to quantify the efficacy (Logτ) of each agonist in each cell line, and subsequently corrected for receptor expression level differences between cell lines (Logτc), using the M2 WT as reference. […] Source data

[14] = molecular target: T7, M2 WT mAChR (Homo sapiens, UniProt P08172); assay: as above; type: cell-based; conditions: M2 wt, T=6min, individual experiments, listed as Ach
T7 construct: expressed in transfected cells; host or cells: CHO FlpIn
T7 sequence (P08172 1-466): T1 sequence (P08172 1-466)
Protocol: as §1, §2, §3

[15] = molecular target: T5, M4 L190F mAChR; assay: as above; type: cell-based; conditions: T=6min, listed as Ach
Protocol: as §1, §2, §3

[16] = Receptor : G protein Molar Ratio 1:0
[17] = Log[Ligand] (M) -4, individual experiments
[18] = Log[Ligand] (M) -9, individual experiments
[19] = Log[Ligand] (M) -10, individual experiments
[20] = Log[Ligand] (M) -12, individual experiments
[21] = overnight treatment with 10 ng per well pertussis toxin

CCCCCOc1nsnc1C1=CCCN(C)C1 [C5]
Fit parameter [1]: 0.2865
Fit parameter [2]: 0.4599

CCCOc1nsnc1C1=CCCN(C)C1 [3-carbon tail analog of xanomeline]
Ki [3]: 37.2 nM
Ki [4]: 49 nM
Ki [5]: 22.9 nM
Ki [6]: 27.5 nM
Ki [7]: 34.7 nM

CC(=O)OCC[N+](C)(C)C [Acetylcholine, acetylcholine]
Emax pERK1/2 [8]: 98 ± 5 % FBS stimulation
Emax pERK1/2 [9]: 90 ± 4 % FBS stimulation
Fraction of receptors in a G protein-dependent high-affinity state [10, 16]: 0.13 ± 0.10
Fraction of receptors in a G protein-dependent high-affinity state ([10]; Receptor : G protein Molar Ratio 1:50): 0.33 ± 0.10
Fraction of receptors in a G protein-dependent high-affinity state ([10]; Receptor : G protein Molar Ratio 1:1000): 0.57 ± 0.11
Fraction of receptors in a G protein-dependent high-affinity state ([10]; Receptor : G protein Molar Ratio 1:2000): 0.89 ± 0.12
Emax pERK1/2 [11]: 94 ± 8 % FBS stimulation
Fraction of receptors in a G protein-dependent high-affinity state [12, 16]: 0.00 ± 0.04
Fraction of receptors in a G protein-dependent high-affinity state ([12]; Receptor : G protein Molar Ratio 1:125): 0.30 ± 0.04
Fraction of receptors in a G protein-dependent high-affinity state ([12]; Receptor : G protein Molar Ratio 1:500): 0.71 ± 0.03
GoA activation response [13, 17]: 104.45 % Emax ACh and 102.662 % Emax ACh and 101.586 % Emax ACh and 101.003 % Emax ACh and 104.541 % Emax ACh
GoA activation response [13, 18]: 1.1727 % Emax ACh and 5.239 % Emax ACh and 5.623 % Emax ACh and -1.171 % Emax ACh and 2.894 % Emax ACh
GoA activation response [13, 19]: 3.695 % Emax ACh and 0.8905 % Emax ACh and -7.035 % Emax ACh and 0.4855 % Emax ACh and -3.187 % Emax ACh
GoA activation response [13, 20]: -21.8016 % Emax ACh and 1.058 % Emax ACh and -6.101 % Emax ACh and 1.717 % Emax ACh and -0.3266 % Emax ACh
GoA activation response ([14]; Log[Ligand] (M) -4): 103.24 % Emax ACh and 95.841 % Emax ACh and 98.7568 % Emax ACh and 99.8054 % Emax ACh and 99.3813 % Emax ACh
GoA activation response ([14]; Log[Ligand] (M) -8): 9.766 % Emax ACh
GoA activation response ([14]; Log[Ligand] (M) -9): 1.63 % Emax ACh and -3.189 % Emax ACh and -6.851 % Emax ACh and 0.4007 % Emax ACh and 0.416 % Emax ACh
GoA activation response ([14]; Log[Ligand] (M) -10): -3.058 % Emax ACh and 8.597 % Emax ACh and 0.3009 % Emax ACh and 1.683 % Emax ACh and 4.386 % Emax ACh
GoA activation response ([14]; Log[Ligand] (M) -12): 6.399 % Emax ACh and 0.8864 % Emax ACh and 8.076 % Emax ACh and 1.671 % Emax ACh and -0.9147 % Emax ACh
GoA activation response [15, 17]: 106.304 % Emax ACh and 103.075 % Emax ACh and 107.769 % Emax ACh and 104.574 % Emax ACh and 105.838 % Emax ACh
GoA activation response ([15]; Log[Ligand] (M) -5, individual experiments): 99.5547 % Emax ACh and 105.081 % Emax ACh and 94.0499 % Emax ACh and 100.086 % Emax ACh and 98.7018 % Emax ACh
GoA activation response ([15]; Log[Ligand] (M) -6, individual experiments): 84.6502 % Emax ACh and 86.1198 % Emax ACh and 94.9784 % Emax ACh and 91.5878 % Emax ACh and 95.0975 % Emax ACh
GoA activation response ([15]; Log[Ligand] (M) -7, individual experiments): 59.4174 % Emax ACh and 69.5753 % Emax ACh and 70.634 % Emax ACh and 76.3729 % Emax ACh and 78.8634 % Emax ACh
GoA activation response ([15]; Log[Ligand] (M) -8, individual experiments): 12.4418 % Emax ACh and 20.3625 % Emax ACh and 19.5412 % Emax ACh and 25.1119 % Emax ACh and 33.5842 % Emax ACh
GoA activation response [15, 18]: 1.269 % Emax ACh and 1.901 % Emax ACh and 28.8031 % Emax ACh and 3.9293 % Emax ACh and 7.995 % Emax ACh
GoA activation response [15, 19]: -3.41 % Emax ACh and 9.605 % Emax ACh and 0.2419 % Emax ACh and -0.9 % Emax ACh and 0.4231 % Emax ACh
GoA activation response [15, 20]: 2.811 % Emax ACh and -10.3446 % Emax ACh and -23.8686 % Emax ACh and 0.009116 % Emax ACh and -3.752 % Emax ACh

CCCCOc1nsnc1C1=CCCN(C)C1 [C4]
Fit parameter [1]: 0.5922
Fit parameter [2]: 0.4707

CCCCCCCCOc1nsnc1C1=CCCN(C)C1 [C8]
Fit parameter [1]: 0.1239
Fit parameter [2]: 0.3749

CCCOc1nsnc1C1=CCCN(C)C1 [C3]
Fit parameter [1]: 0.6149
Fit parameter [2]: 0.346

pertussis toxin
acetylcholine-mediated pERK1/pERK2 response eliminated [1, 21]: > 95%
acetylcholine-mediated pERK1/pERK2 response eliminated [2, 21]: > 95%

CCCCCCOc1nsnc1C1=CCCN(C)C1 [C6]
Fit parameter [1]: 0.08358
Fit parameter [2]: 0.5137

CCCCCCCOc1nsnc1C1=CCCN(C)C1 [C7]
Fit parameter [1]: 0.1544
Fit parameter [2]: 0.4743
